Where a name gives a salt, the structure may show the parent alone.
Experiment: Test 4: Inhibition of cellular release of amyloid peptide 1-40
Type: cell-based, Chinese hamster
Details: Cricetulus griseus; Test 4, CHO cells transfected with APP, 24 hours with test compound, amyloid peptide 1-40 in supernatant; read-out: Bace IC50
Experimental: Test 4: Inhibition of Cellular Release of Amyloid Peptide 1-40
Chinese hamster ovary cells are transfected with the gene for amyloid precursor protein. The cells are plated at a density of 8000 cells/well into 96-well microtiter plates and cultivated for 24 hours in DMEM cell culture medium containing 10% FCS. The test compound is added to the cells at various concentrations, and the cells are cultivated for 24 hours in the presence of the test compound. The supernatants are collected, and the concentration of amyloid peptide 1-40 is determined using state of the art immunoassay techniques, for example sandwich ELISA, homogenous time-resolved fluorescence (HTRF) immunoassay, or electro-chemiluminescence immunoassay.

IC50 [nM]	Structure (SMILES)
17	C[C@@]1(c2cccc(NC(=O)c3ccc(Br)cn3)c2)COCC(N)=N1 [Example 3, 5-Bromo-pyridine-2-carboxylic acid [3-((R)-5-amino-3-methyl-3,6-dihydro-2H-[1,4]oxazin-3-yl)-phenyl]-amide hydrochloride]
4	Cc1cc(Br)cnc1C(=O)Nc1ccc(F)c(C2(C)COCC(N)=N2)c1 (stereo not shown) [Example 64]
4	C[C@@]1(c2cc(NC(=O)c3ncc(Br)cn3)ccc2F)CO[C@@](C)(C(F)(F)F)C(N)=N1 [Example 71, 5-Bromo-pyrimidine-2-carboxylic acid [3-((3R,6R)-6-amino-3,6-dimethyl-6-trifluoromethyl-3,6-dihydro-2H-[1,4]oxazin-3-yl)-4-fluoro-phenyl]-amide hydrochloride]
100	NC1=NC(c2cc(NC(=O)c3ccc(Br)cn3)ccc2F)(C(F)(F)F)CCOC1 (stereo not shown) [Example 99, 5-Bromo-pyridine-2-carboxylic acid [3-(3-amino-5-trifluoromethyl-2,5,6,7-tetrahydro-[1,4]oxazepin-5-yl)-4-fluoro-phenyl]-amide hydrochloride]
7	N#Cc1ccc(C(=O)Nc2ccc(F)c([C@]3(C(F)F)COCC(N)=N3)c2)nc1 [Example 112, 5-Cyano-pyridine-2-carboxylic acid [3-((R)-5-amino-3-difluoromethyl-3,6-dihydro-2H-[1,4]oxazin-3-yl)-4-fluoro-phenyl]-amide hydrochloride]
4	Cl.[2H]c1nc(C(=O)Nc2ccc(F)c([C@]3(C(F)F)COCC(N)=N3)c2)c(C([2H])([2H])[2H])c([2H])c1Br [Example 116, 5-Bromo-4,6-dideutero-3-trideuteromethyl-pyridine-2-carboxylic acid [3-((R)-5-amino-3-difluoromethyl-3,6-dihydro-2H-[1,4]oxazin-3-yl)-4-fluoro-phenyl]-amide hydrochloride]
6	Cc1cc(C#N)cnc1C(=O)Nc1ccc(F)c([C@]2(C(F)F)COCC(N)=N2)c1 [Example 144, 5-Cyano-3-methyl-pyridine-2-carboxylic acid [3-((R)-5-amino-3-difluoromethyl-3,6-dihydro-2H-[1,4]oxazin-3-yl)-4-fluoro-phenyl]-amide]
8	[2H]c1nc(C(=O)Nc2ccc(F)c([C@]3(C(F)F)COCC(N)=N3)c2)c(C([2H])([2H])[2H])c([2H])c1C#N [Example 147, 5-Cyano-4,6-dideutero-3-trideuteromethyl-pyridine-2-carboxylic acid [3-((R)-5-amino-3-difluoromethyl-3,6-dihydro-2H-[1,4]oxazin-3-yl)-4-fluoro-phenyl]-amide]
1	CC#CCOc1cnc(C(=O)Nc2ccc(F)c([C@]3(C(F)F)COCC(N)=N3)c2)cn1 [Example 164]
4	COc1cnc(C(=O)Nc2ccc(F)c([C@]3(C(F)F)COCC(N)=N3)c2)c(N)n1 [Example 175]

— patent US8846658B2, “Oxazine derivatives and their use in the treatment of neurological disorders” (Novartis AG, priority 2009, dated 2014)
